Assay results from US8471041B2 (priority 2010, dated 2013).
Values after ≈ are worked out from the molar mass of the structure shown.

How the values were obtained:
physchem [1] = settings: organic solvent or mixture
physchem [2] = settings: water

Q: For `O=C(CBr)N1CC([N+](=O)[O-])([N+](=O)[O-])C1` [ABDNAZ, N-(bromoacetyl)-3,3-dinitroazetidine], which solubility (physchem [1]) is on record?
A: ~30 mg/mL (≈ 112 mM)

Q: What about the solubility (physchem [2]) of the same compound?
A: 0.3 to 1.3 mg/mL (≈ 1.12 to 4.85 mM)
